Here are results for 20 compounds from ChEMBL document CHEMBL2434907, “Synthesis and SAR studies of benzimidazolone derivatives as histamine H3-receptor antagonists” (Bioorg Med Chem Lett, 2013).

A value given as a limit tells only on which side of the number the result lay.

One series concerns the target Cytochrome P450 2D6 (Homo sapiens, UniProt P10635). The series can be described thus: Inhibition of CYP2D6 in human liver microsomes. Type of series: ADME, Microsome. Background: Microsomes from liver hold many membrane-bound enzymes, among them those of drug oxidation.
For a further series, the target named is Cytochrome P450 3A4 (Homo sapiens, UniProt P08684). Nature of the series: Inhibition of CYP3A4 in human liver microsomes. The class given is ADME, Microsome.
Chain of Cytochrome P450 3A4 (P08684 whole entry): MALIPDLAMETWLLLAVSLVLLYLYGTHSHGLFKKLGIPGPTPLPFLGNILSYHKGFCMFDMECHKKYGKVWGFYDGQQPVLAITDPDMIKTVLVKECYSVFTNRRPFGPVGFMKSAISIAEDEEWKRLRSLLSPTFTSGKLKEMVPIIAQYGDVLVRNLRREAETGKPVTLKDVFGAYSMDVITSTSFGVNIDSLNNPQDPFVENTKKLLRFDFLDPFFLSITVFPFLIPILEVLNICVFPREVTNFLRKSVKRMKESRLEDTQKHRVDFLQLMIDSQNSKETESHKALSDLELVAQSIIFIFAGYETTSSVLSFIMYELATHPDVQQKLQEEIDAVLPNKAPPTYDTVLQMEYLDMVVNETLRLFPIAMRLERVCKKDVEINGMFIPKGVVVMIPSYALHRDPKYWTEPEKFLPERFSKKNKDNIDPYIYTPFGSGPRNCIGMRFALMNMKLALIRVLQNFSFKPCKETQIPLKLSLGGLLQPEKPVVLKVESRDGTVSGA
The nature of series [1]: AUC in Sprague-Dawley rat at 10 mg/kg, po. Type of series: ADME, organism-based. More on the design: dose 10 mg/kg, route oral. The note with it: plasma.
Series [2] is described as follows: Plasma concentration in Sprague-Dawley rat at 10 mg/kg, po after 6 hrs. The class given is ADME, organism-based. More on the design: dose 10 mg/kg, route oral.
The target in another series is Histamine H3 receptor (Cavia porcellus, UniProt Q9JI35). The series can be described thus: Displacement of [3H]-N-alpha-methyl histamine from histamine H3 receptor in guinea pig brain homogenates. Type of series: tissue-based. Background: In a radioligand displacement assay an active substance lowers the binding of a labelled ligand.
Chain of Histamine H3 receptor (Q9JI35 whole entry): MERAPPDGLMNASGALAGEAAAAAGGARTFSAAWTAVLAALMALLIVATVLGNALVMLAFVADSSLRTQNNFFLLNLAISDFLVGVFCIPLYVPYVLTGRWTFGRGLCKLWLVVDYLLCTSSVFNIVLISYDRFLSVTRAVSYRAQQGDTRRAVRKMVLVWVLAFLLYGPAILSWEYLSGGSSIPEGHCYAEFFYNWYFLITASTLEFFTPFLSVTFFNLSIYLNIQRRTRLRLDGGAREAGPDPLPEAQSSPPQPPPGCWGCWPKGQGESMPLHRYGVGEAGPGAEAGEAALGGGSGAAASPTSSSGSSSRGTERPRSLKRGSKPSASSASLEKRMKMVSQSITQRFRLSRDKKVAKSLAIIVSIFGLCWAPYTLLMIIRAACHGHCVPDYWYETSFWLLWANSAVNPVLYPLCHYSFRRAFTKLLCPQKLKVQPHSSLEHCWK

Chain of Cytochrome P450 2D6 (P10635 whole entry): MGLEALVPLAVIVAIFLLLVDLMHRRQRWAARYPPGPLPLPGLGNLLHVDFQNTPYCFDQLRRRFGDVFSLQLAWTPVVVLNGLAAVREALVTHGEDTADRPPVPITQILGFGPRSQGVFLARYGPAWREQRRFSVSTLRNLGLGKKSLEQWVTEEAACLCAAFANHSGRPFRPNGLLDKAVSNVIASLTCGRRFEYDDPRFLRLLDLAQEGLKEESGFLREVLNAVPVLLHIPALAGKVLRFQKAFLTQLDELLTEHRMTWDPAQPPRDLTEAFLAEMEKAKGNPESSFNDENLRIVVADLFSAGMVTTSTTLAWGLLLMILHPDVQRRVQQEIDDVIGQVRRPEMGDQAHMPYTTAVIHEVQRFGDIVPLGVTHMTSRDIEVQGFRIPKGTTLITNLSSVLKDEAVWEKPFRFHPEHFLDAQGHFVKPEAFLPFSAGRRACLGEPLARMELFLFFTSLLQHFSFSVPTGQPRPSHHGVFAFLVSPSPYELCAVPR

Regarding `Nc1cc(CN2CCC(C(=O)N3CCC(n4c(=O)n(CC(F)(F)F)c5cc(F)ccc54)CC3)CC2)ccn1`, the IC50 against Cytochrome P450 2D6 and against Cytochrome P450 3A4 was > 30 µM each time. The same compound yielded an area under the curve (AUC) in series [1] of 1.2 µM·h. Besides, the concentration at 6 h in series [2] was found to be 130 nM.
Regarding `CC(c1ccc(-c2ccc(F)cc2)cc1)n1c(=O)n(C2CCN(C(=O)C3CCN(Cc4ccnc(N)c4)CC3)CC2)c2ccccc21` (stereo unspecified), at Histamine H3 receptor, the Ki worked out at 0.42 µM.
For the compound `Nc1cc(CN2CCC(C(=O)N3CCC(n4c(=O)n(-c5cc(F)cc(F)c5)c5cc(F)ccc54)CC3)CC2)ccn1`, the 50% inhibitory concentration (IC50) at Cytochrome P450 2D6 and against Cytochrome P450 3A4 was > 30 µM in each case. Besides, the area under the curve (AUC) in series [1] came to 12.9 µM·h. Besides, the concentration at 6 h in series [2] amounted to 1850 nM.
`Nc1cc(CN2CCC(C(=O)N3CCC(n4c(=O)n(Cc5ccc(Cl)cc5)c5ccccc54)CC3)CC2)ccn1` registered a Ki on Histamine H3 receptor of 0.012 µM.
`COCCn1c(=O)n(C2CCN(C(=O)C3CCN(Cc4ccnc(N)c4)CC3)CC2)c2ccccc21`: the IC50 on Cytochrome P450 2D6 and at Cytochrome P450 3A4 was > 30 µM each time. The AUC in series [1] is 0.1 µM·h.
`Nc1cc(CN2CCC(C(=O)N3CCC(n4c(=O)n(CCN5CCOCC5)c5cc(F)ccc54)CC3)CC2)ccn1` displayed a Ki on Histamine H3 receptor of 0.0023 µM. In addition, the half-inhibitory concentration (IC50) against Cytochrome P450 2D6 and against Cytochrome P450 3A4 was > 30 µM in each case.
As for `Nc1cc(CN2CCC(C(=O)N3CCC(n4c(=O)n(C5CCCC5)c5cc(F)ccc54)CC3)CC2)ccn1`, the IC50 against Cytochrome P450 2D6 was > 30 µM; on Cytochrome P450 3A4, 22 µM. In series [1], this compound yielded an AUC of 1.8 µM·h. In addition, the concentration at 6 h in series [2] amounted to 200 nM.
On to `Nc1cc(CN2CCC(C(=O)N3CCC(n4c(=O)n(CC5CCCCC5)c5cc(F)ccc54)CC3)CC2)ccn1`, for which the IC50 against Cytochrome P450 2D6 and at Cytochrome P450 3A4 was > 30 µM each time.
On to `Nc1cc(CN2CCC(C(=O)N3CCC(n4c(=O)n(Cc5ccccc5)c5cc(F)ccc54)CC3)CC2)ccn1`, for which the affinity at Histamine H3 receptor, expressed as Ki, was 0.006 µM.
Compound `Nc1cc(CN2CCC(C(=O)N3CCC(n4c(=O)[nH]c5ccccc54)CC3)CC2)ccn1` displayed a Ki at Histamine H3 receptor of 0.0006 µM. In addition, the IC50 against Cytochrome P450 2D6 and against Cytochrome P450 3A4 was > 30 µM throughout.
In the case of `Nc1cc(CN2CCC(C(=O)N3CCC(n4c(=O)n(CCCC(F)(F)F)c5cc(F)ccc54)CC3)CC2)ccn1`, the IC50 at Cytochrome P450 2D6 was > 30 µM; on Cytochrome P450 3A4, 30 µM. In series [1], this compound displayed an area under the curve (AUC) of 4.1 µM·h. Further, the concentration at 6 h in series [2] was 510 nM.
For the compound `CC(c1ccc(Cl)c(Cl)c1)n1c(=O)n(C2CCN(C(=O)C3CCN(Cc4ccnc(N)c4)CC3)CC2)c2ccccc21` (stereo unspecified), the affinity at Histamine H3 receptor corresponds to a Ki of 0.077 µM.
In turn, `Nc1cc(CN2CCC(C(=O)N3CCC(n4c(=O)n(-c5cnccn5)c5cc(F)ccc54)CC3)CC2)ccn1` displayed an inhibition constant Ki at Histamine H3 receptor of 0.0005 µM. In addition, the half-inhibitory concentration (IC50) on Cytochrome P450 2D6 and at Cytochrome P450 3A4 was > 30 µM in each case. The AUC in series [1] amounted to 3.7 µM·h. In series [2], this compound yielded a concentration at 6 h of 500 nM.
With `Nc1cc(CN2CCC(C(=O)N3CCC(n4c(=O)n(CC5CC5)c5cc(F)ccc54)CC3)CC2)ccn1`, the IC50 at Cytochrome P450 2D6 is > 30 µM; against Cytochrome P450 3A4, 30 µM. This compound also showed an AUC in series [1] of 3.5 µM·h. The compound further displayed a concentration at 6 h in series [2] of 260 nM.
Turning to `CC(C)Cn1c(=O)n(C2CCN(C(=O)C3CCN(Cc4ccnc(N)c4)CC3)CC2)c2ccc(F)cc21`, the half-maximal inhibitory concentration (IC50) against Cytochrome P450 2D6 and against Cytochrome P450 3A4 was > 30 µM throughout.
`Nc1cc(CN2CCC(C(=O)N3CCC(n4c(=O)n(-c5ncccn5)c5cc(F)ccc54)CC3)CC2)ccn1`: the concentration for half-maximal inhibition (IC50) on Cytochrome P450 2D6 and against Cytochrome P450 3A4 was > 30 µM in each case.
On to `Nc1cc(CN2CCC(C(=O)N3CCC(n4c(=O)n(CCCC(F)(F)F)c5ccccc54)CC3)CC2)ccn1`, for which the IC50 at Cytochrome P450 2D6 and against Cytochrome P450 3A4 was > 30 µM in each case.
Consider `Nc1cc(CN2CCC(C(=O)N3CCC(n4c(=O)n(-c5ccc(F)c(F)c5)c5cc(F)ccc54)CC3)CC2)ccn1`, for which the IC50 at Cytochrome P450 2D6 and at Cytochrome P450 3A4 was > 30 µM each time. In series [1], the AUC was found to be 5.1 µM·h. Moreover, the concentration at 6 h in series [2] amounted to 680 nM.
Turning to `Nc1cc(CN2CCC(C(=O)N3CCC(n4c(=O)n(CCN5CCOCC5)c5ccccc54)CC3)CC2)ccn1`, the half-maximal inhibitory concentration (IC50) was > 30 µM on Cytochrome P450 2D6 and 30 µM on Cytochrome P450 3A4.
Consider `Nc1cc(CN2CCC(C(=O)N3CCC(n4c(=O)n(-c5ccccn5)c5cc(F)ccc54)CC3)CC2)ccn1`, for which the IC50 at Cytochrome P450 2D6 and at Cytochrome P450 3A4 was > 30 µM in each case. For the same compound, the exposure (AUC) in series [1] came to 10.9 µM·h. Also, the concentration at 6 h in series [2] came out at 1200 nM.

Broadly, the IC50 is the concentration at which inhibition is half-maximal. Low readings indicate greater potency in that assay, high ones weaker potency in that assay. Broadly, the AUC is the area under the concentration-time curve, a measure of exposure. Read a low AUC as low exposure. For orientation: Ki means a dissociation constant, usually derived from enzyme kinetics or from competition with a known ligand. Read a low Ki as higher affinity.
